Assays:
[1] = tested on: platelet adenylate cyclase; experiment: Platelet membrane adenylate cyclase (AC) assay, 32P-ATP to 32P-cAMP; assay type: biochemical, human; parameters: Adenylate Cyclase Activity - CsF-Stimulated / Adenylate Cyclase Activity - CsF-Stimulated, Mean ± SD: unit not given here; conditions: for Adenylate Cyclase Activity - CsF-Stimulated / Adenylate Cyclase Activity - CsF-Stimulated, Mean ± SD / Enzyme Activity +CsF: CsF 10 mM; for Enzyme Activity +Gpp(NH)p / Enzyme Activity +PGE1 (1 uM): mean ± SD; for Enzyme Activity +Gpp(NH)p: Gpp(NH)p 10 uM
Protocol: Platelets were prepared from whole blood (20 ml) which was obtained by venipuncture from healthy volunteers and alcoholic subjects. After standing at room temperature for approximately three to four hours in citrate-phosphate-dextrose solution, each blood sample was centrifuged at 180×G for two minutes. […] The PRP was centrifuged at 16,000 g for ten minutes. The pellet was resuspended in 50 ml of cold 50 mM Tris-HCl, pH 7.5, containing […] NaCl and 20 mM ethylene diamine tetraacetic acid (EDTA). The centrifugation was repeated twice, and the final pellet was resuspended in 1 ml of cold 5 mM Tris-HCl, pH 7.5, containing 5 mM EDTA. Suspensions were rapidly frozen at -70° C., and samples were stored at -70° C. for no longer than four weeks prior to assay. AC activity was assayed by a modification of previously described methods, Hoffman and Tabakoff, J. Pharmacol. Exptl. […] Platelets were thawed at room temperature, aliquots of platelets were diluted to 4 ml with 5 mM Tris-HCl buffer containing 5 mM EDTA, and the suspension was centrifuged at 39,000×G for ten minutes at 4° C. […] The reaction was stopped by placing the tubes in a boiling water bath for three minutes. […] The ^32 p-cAMP was isolated by sequential chromatography on Dowex (Sigma Chemical Co., St. Louis, Mo.) and alumina columns (Sigma Chemical Co., St. Louis, Mo.), Salomon et. al., Anal. […] To each column effluent, 10 ml of scintilation cocktail was added, and ^32 p-cAMP was quantitated in a liquid scintillation spectrometer. All values were corrected for percentage recovery of the product (^32 p-cAMP).

[2] = tested on: platelet adenylate cyclase; conditions: Jakobs et al., J. Recep. Res. 4:443-458, 1984; cited from earlier work
[3] = molecular target: T1, platelet monoamine oxidase (MAO) (Homo sapiens, UniProt P27338); experiment: Platelet monoamine oxidase (MAO) assay, deamination of 14C-PEA; assay type: biochemical; conditions: for Percent Inhibition by 400 mM Ethyl Alcohol / Percent Inhibition by 400 mM Ethyl Alcohol, Mean ± SD / Percent Inhibition by 400 mM ETOH: 12 uM PEA; for Percent Inhibition by 400 mM ETOH: mean ± SD
T1 construct: contained approximately 15 ug of platelet protein; from tissue; host or cells: platelets (membranes) from whole blood of volunteers and alcoholic subjects
T1 sequence (P27338 1-520): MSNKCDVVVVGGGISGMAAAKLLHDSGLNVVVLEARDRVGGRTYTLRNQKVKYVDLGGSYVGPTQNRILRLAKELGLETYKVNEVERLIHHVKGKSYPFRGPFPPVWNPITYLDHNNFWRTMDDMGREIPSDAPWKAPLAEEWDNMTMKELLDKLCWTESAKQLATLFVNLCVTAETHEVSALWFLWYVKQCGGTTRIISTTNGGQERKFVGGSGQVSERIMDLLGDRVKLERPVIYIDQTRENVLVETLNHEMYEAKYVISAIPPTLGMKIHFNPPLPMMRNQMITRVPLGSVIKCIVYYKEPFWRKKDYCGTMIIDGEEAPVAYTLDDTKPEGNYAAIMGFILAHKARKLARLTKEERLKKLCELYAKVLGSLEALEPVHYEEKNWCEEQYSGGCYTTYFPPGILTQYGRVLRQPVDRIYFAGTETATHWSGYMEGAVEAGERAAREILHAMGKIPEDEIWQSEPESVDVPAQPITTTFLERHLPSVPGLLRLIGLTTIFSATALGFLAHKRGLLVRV
Protocol: Platelets were prepared from whole blood (20 ml) which was obtained by venipuncture from healthy volunteers and alcoholic subjects. After standing at room temperature for approximately three to four hours in citrate-phosphate-dextrose solution, each blood sample was centrifuged at 180×G for two minutes. The platelet-rich plasma (PRP) was carefully removed and platelet count was determined from aliquots (20 ul) of the PRP with a Coulter S-plus Thrombocounter. The PRP was centrifuged at 16,000 g for ten minutes. The pellet was resuspended in 50 ml of cold 50 mM Tris-HCl, pH 7.5, containing […] NaCl and 20 mM ethylene diamine tetraacetic acid (EDTA). The centrifugation was repeated twice, and the final pellet was resuspended in 1 ml of cold 5 mM Tris-HCl, pH 7.5, containing 5 mM EDTA. Suspensions were rapidly frozen at -70° C., and samples were stored at -70° C. for no longer than four weeks prior to assay.
To measure the deamination of ^14 C-PEA, assay mixtures (total volume, 0.3 ml) contained approximately 15 ug of platelet protein. Reactions were carried out in 0.1 M sodium phosphate, pH 7.4, at 37° C. A five-minute preincubation period preceded the addition of substrate, and blanks were preincubated in the presence of 1×10^-3 M pargyline. Appropriate concentrations of ^14 C-PEA (10,000 dpm per nmole) were added to initiate the reaction, and the incubation was carried out for 15 minutes. The reaction was stopped by placing the tubes in an ice bath and adding 1.0 ml of ice-cold unlabeled PEA solution (10^-4 M) to each assay tube. A 1-ml aliquot was then removed from each tube and placed on an Amberlite™ ion exchange column, Tabakoff et. al., Psychopharmacol. 87:152 (1985). The columns were washed with two 1-ml portions of distilled water and the effluent was collected in scintillation vials. Two additional ml of water and 20 ml of scintillation fluid were added to each vial, and radioactivity was determined in a liquid scintillation spectrometer. To study the effects of ethanol or other alcohols on MAO activity, the alcohols were added to incubation mixtures five minutes prior to the addition of substrate.

## [Cs+].[F-] [CsF, cesium fluoride]
[1]; control subject No. 5, Sample 1
  Adenylate Cyclase Activity - CsF-Stimulated: 83.6
[1]; control subject No. 5, Sample 2 (one week interval)
  Adenylate Cyclase Activity - CsF-Stimulated: 69.5
[1]; control subject No. 5, Sample 3 (one week interval)
  Adenylate Cyclase Activity - CsF-Stimulated: 72.3
[1]; control subject No. 5, mean of 3 samples
  Adenylate Cyclase Activity - CsF-Stimulated, Mean ± SD: 75.1 ± 7.5
[1]; control subject No. 6, Sample 1
  Adenylate Cyclase Activity - CsF-Stimulated: 104.2
[1]; control subject No. 6, Sample 2 (one week interval)
  Adenylate Cyclase Activity - CsF-Stimulated: 98.0
[1]; control subject No. 6, Sample 3 (one week interval)
  Adenylate Cyclase Activity - CsF-Stimulated: 100.2
[1]; control subject No. 6, mean of 3 samples
  Adenylate Cyclase Activity - CsF-Stimulated, Mean ± SD: 100.8 ± 3.1
[1]; platelets of Alcoholics, mean (SD 27.8), n=107, significant vs control
  Enzyme Activity +CsF: 78.2 pmole cAMP/mg protein/minute
[1]; platelets of Controls, mean (SD 28.7), n=49
  Enzyme Activity +CsF: 97.9 pmole cAMP/mg protein/minute
[1]; platelets of Recovering Alcoholics, mean (SD 27.2), n=38, significant vs control
  Enzyme Activity +CsF: 70.6 pmole cAMP/mg protein/minute

## Nc1nc2c(ncn2[C@@H]2O[C@H](COP(=O)(O)OP(=O)(O)NP(=O)(O)O)[C@@H](O)[C@H]2O)c(=O)[nH]1 [Gpp(NH)p, guanylylimidodiphosphate]
[1]; platelets of Alcoholics, n=43, significant vs control
  Enzyme Activity +Gpp(NH)p: 37.8 ± 14.4 pmole cAMP/mg protein/minute
[1]; platelets of Controls, n=36
  Enzyme Activity +Gpp(NH)p: 50.4 ± 15.0 pmole cAMP/mg protein/minute
[1]; platelets of Recovering Alcoholics, n=23, significant vs control
  Enzyme Activity +Gpp(NH)p: 37.2 ± 16.5 pmole cAMP/mg protein/minute

## Nc1ncnc2c1ncn2[C@@H]1O[C@H](COP(=O)(O)OP(=O)(O)OP(=O)(O)O)[C@@H](O)[C@H]1O [Mg-adenosine triphosphate]
[1]; platelets of control subjects, 10 mM Mg++, varying ATP, mean±SD, n=3
  maximal activity (Vmax) of adenylate cyclase: 15.1±2.4 pmole cAMP produced/min/mg pro
[1]; platelets of control subjects, 10 mM Mg++, varying ATP, mean±SEM, n=3, read-out: Km of adenylate cyclase for Mg-adenosine triphosphate (ATP)
  Km: 20.1 ± 3.8 µM

## [Na+] [Na^+]
[2]
  effect of sodium ion on stimulation of platelet AC activity: inhibits stimulation of platelet AC activity

## CCCCC[C@H](O)/C=C/[C@H]1[C@H](O)CC(=O)[C@@H]1CCCCCCC(=O)O [PGE1, prostaglandin E1]
[1]; platelets of Alcoholics, n=34, significant vs control
  Enzyme Activity +PGE1 (1 uM): 84.4 ± 36.1 pmole cAMP/mg protein/minute
[1]; platelets of Controls, n=21
  Enzyme Activity +PGE1 (1 uM): 115.5 ± 32.9 pmole cAMP/mg protein/minute
[1]; platelets of Recovering Alcoholics, n=8, significant vs control and vs alcoholics
  Enzyme Activity +PGE1 (1 uM): 42.7 ± 12.8 pmole cAMP/mg protein/minute

## CCO [ethyl alcohol]
[3]; in vitro, amount of inhibition depended on substrate concentration
  nature of MAO inhibition by ethyl alcohol added in vitro: reversible and was "competitive" in nature
[3]; patient No. 1, Sample 1 (baseline)
  Percent Inhibition by 400 mM Ethyl Alcohol: 7.0%
[3]; patient No. 1, Sample 2 (five days later)
  Percent Inhibition by 400 mM Ethyl Alcohol: 7.6%
[3]; patient No. 1, Sample 3 (six days later)
  Percent Inhibition by 400 mM Ethyl Alcohol: 6.1%
[3]; patient No. 1, mean of 3 samples
  Percent Inhibition by 400 mM Ethyl Alcohol, Mean ± SD: 6.9 ± 0.8%
[3]; patient No. 2, Sample 1 (baseline)
  Percent Inhibition by 400 mM Ethyl Alcohol: 13.1%
[3]; patient No. 2, Sample 2 (five days later)
  Percent Inhibition by 400 mM Ethyl Alcohol: 7.9%
[3]; patient No. 2, Sample 3 (six days later)
  Percent Inhibition by 400 mM Ethyl Alcohol: 9.8%
[3]; patient No. 2, mean of 3 samples
  Percent Inhibition by 400 mM Ethyl Alcohol, Mean ± SD: 10.3 ± 2.6%
[3]; platelets of Alcoholics, n=54, P < 0.01 vs control
  Percent Inhibition by 400 mM ETOH: 12.6 ± 7.0%
[3]; platelets of Controls, n=28
  Percent Inhibition by 400 mM ETOH: 7.5 ± 6.9%
[3]; platelets of Recovering Alcoholics, n=22, P < 0.05 vs control
  Percent Inhibition by 400 mM ETOH: 11.4 ± 6.2%

Source: patent US4770996A, “Identification of individuals predisposed toward alcohol abuse” (priority 1986, dated 1988)
